Laboratory results reported in US11440913B2, “Aminoimidazopyridazines as kinase inhibitors” (BRISTOL-MYERS SQUIBB COMPANY, priority 2017, dated 2022).
Structures can show the parent of a compound that is named as a salt. Where two headings read alike, the source gives them in different places.

Tests used:
[1] = tested on: MLKL phosphorylation in HT29-L23 human colorectal adenocarcinoma cells; experiment: MLKL Phosphorylation High-Content Assay; type: cell-based; details: 6 h, necroptosis induced with TNFα, SMAC mimetic and Z-VAD, read-out: pMLKL (IC50)
In short: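 HT29-L23 cells pretreated 30 min at 37 °C with compound (6.25 to 0.106 μM final), then necroptosis induced with TNFα 35 ng/mL, SMAC mimetic 700 nM and Z-VAD 140 nM for 6 h. Fixed cells immunostained for MLKL pS358 and imaged; IC50 and Ymax from 4-parameter logistic fit.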

[2] = target: His-GST-TVMV-hRIPK1(1-324) (Homo sapiens (Human), UniProt Q13546); experiment: RIPK1 HTRF Binding Assay; details: HTRF binding, 1 h at rt; read-out: RIPK1 (IC50)
In short: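 HTRF probe-displacement binding: 1 nM His-GST-TVMV-hRIPK1(1-324) (baculovirus construct), 90.6 nM probe, 0.2 nM anti-GST-Tb in 20 mM HEPES, 10 mM MgCl2, 0.015% Brij-35, 4 mM DTT, 0.05 mg/mL BSA. Incubated 1 h at rt; FRET 520/495 nm ratio, inhibition relative to DMSO-only wells.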

His-GST-TVMV-hRIPK1(1-324), sequence (Q13546 1-324): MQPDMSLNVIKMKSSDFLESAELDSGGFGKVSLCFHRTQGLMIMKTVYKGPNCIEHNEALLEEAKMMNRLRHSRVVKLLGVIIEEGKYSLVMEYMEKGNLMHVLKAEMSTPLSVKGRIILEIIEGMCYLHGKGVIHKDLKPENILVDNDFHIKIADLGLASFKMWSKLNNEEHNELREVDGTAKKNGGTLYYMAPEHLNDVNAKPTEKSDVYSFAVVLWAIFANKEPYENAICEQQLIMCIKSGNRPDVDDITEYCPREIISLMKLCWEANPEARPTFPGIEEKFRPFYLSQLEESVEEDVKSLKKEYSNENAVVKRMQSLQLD

## CC(=O)Nc1cn2nc(-c3cnc(C)c(C(=O)NCc4ccccc4OC4CCCC4)c3)ccc2n1 [Example 225, N-{[2-(cyclopentyloxy)phenyl]methyl}-5-{2-acetamidoimidazo[1,2-b]pyridazin-6-yl}-2-methylpyridine-3-carboxamide]
[1]; Homo sapiens
  IC50: 0.003 µM
[2]
  IC50: 0.005 µM

## COc1ncc(-c2ccc3nc(NC(C)=O)cn3n2)cc1C(=O)NCc1ccccc1OC(C)C [Example 165, 5-{2-acetamidoimidazo[1,2-b]pyridazin-6-yl}-2-methoxy-N-{[2-(propan-2-yloxy)phenyl]methyl}pyridine-3-carboxamide]
[1]; Homo sapiens
  IC50: 0.011 µM
[2]
  IC50: 0.004 µM

## CC(=O)Nc1cn2nc(-c3cnc(C)c(C(=O)NCc4cc(F)cc(F)c4O[C@H]4CCOC4)c3)ccc2n1 [Example 187, N-({3,5-difluoro-2-[(3S)-oxolan-3-yloxy]phenyl}methyl)-5-{2-acetamidoimidazo [1,2-b]pyridazin-6-yl}-2-methylpyridine-3-carboxamide]
[1]; Homo sapiens
  IC50: 0.148 µM
[2]
  IC50: 0.018 µM

## COc1ncc(-c2ccc3nc(NC(C)=O)cn3n2)cc1C(=O)NCc1c(F)ccc(F)c1OCC1CC1 [Example 127, N-{[2-(cyclopropylmethoxy)-3,6-difluorophenyl]methyl}-5-{2-acetamidoimidazo[1,2-b]pyridazin-6-yl}-2-methoxypyridine-3-carboxamide]
[1]; Homo sapiens
  IC50: 0.033 µM
[2]
  IC50: 0.004 µM

## COc1ncc(-c2ccc3nc(NC(C)=O)cn3n2)cc1C(=O)NCc1c(F)cccc1OC1CCCC1 [Example 156, N-{[2-(cyclopentyloxy)-6-fluorophenyl]methyl}-5-{2-acetamidoimidazo[1,2-b]pyridazin-6-yl}-2-methoxypyridine-3-carboxamide]
[1]; Homo sapiens
  IC50: 0.003 µM
[2]
  IC50: 0.002 µM

## COc1ncc(-c2ccc3nc(NC(=O)CO)cn3n2)cc1C(=O)NCc1cc(C(F)(F)F)ccc1F [Example 34, N-{[2-fluoro-5-(trifluoromethyl)phenyl]methyl}-5-[2-(2-hydroxyacetamido)imidazo[1,2-b]pyridazin-6-yl]-2-methoxypyridine-3-carboxamide]
[1]; Homo sapiens
  IC50: 0.215 µM
[2]
  IC50: 0.096 µM

## CC(=O)Nc1cn2nc(-c3cc(C(=O)NCc4cc(OC(F)(F)F)ccc4F)ccc3Cl)ccc2n1 [Example 431, 4-chloro-3-{2-acetamidoimidazo [1,2-b]pyridazin-6-yl}-N-{[2-fluoro-5-(trifluoromethoxy)phenyl]methyl} benzamide]
[1]; Homo sapiens
  IC50: 0.091 µM
[2]
  IC50: 0.007 µM

## CC(=O)Nc1cn2nc(-c3cnc(C)c(C(=O)Nc4cn(Cc5ccc(Cl)cc5)cn4)c3)ccc2n1 [Example 349, N-{1-[(4-chlorophenyl)methyl]-1H-imidazol-4-yl}-5-{2-acetamidoimidazo[1,2-b]pyridazin-6-yl}-2-methylpyridine-3-carboxamide]
[1]; Homo sapiens
  IC50: 0.424 µM
[2]
  IC50: 0.051 µM

## CC(=O)OCC(=O)Nc1cn2nc(-c3cnc(C)c(C(=O)N[C@H](C)c4cc(OC(F)(F)F)ccc4F)c3)ccc2n1 [Example 342, {[6-(5-{[(1R)-1-[2-fluoro-5-(trifluoromethoxy)-phenyl]ethyl]-carbamoyl}-6-methylpyridin-3-yl)imidazo[1,2-b]pyridazin-2-yl]carbamoyl}-methyl acetate]
[1]; Homo sapiens
  IC50: 0.142 µM
[2]
  IC50: 0.013 µM

## CC(=O)Nc1cn2nc(-c3cc(C(=O)N[C@H](C)c4cc(OC(F)(F)F)ccc4F)c(Cl)cc3F)ccc2n1 [Example 392, 2-chloro-5-{2-acetamidoimidazo [1,2-b]pyridazin-6-yl}-4-fluoro-N-[(1R)-1-[2-fluoro-5-(trifluoromethoxy)phenyl]ethyl] benzamide]
[1]; Homo sapiens
  IC50: 0.072 µM
[2]
  IC50: 0.036 µM

## CC(=O)Nc1cn2nc(-c3cnc(C)c(C(=O)NCc4c(F)cccc4OCC4CC4)c3)ccc2n1 [Example 226, N-{[2-(cyclopropylmethoxy)-6-fluorophenyl]methyl}-5-{2-acetamidoimidazo[1,2-b]pyridazin-6-yl}-2-methylpyridine-3-carboxamide]
[1]; Homo sapiens
  IC50: 0.003 µM
[2]
  IC50: 0.006 µM

## COc1ncc(-c2ccc3nc(NC(C)=O)cn3n2)cc1C(=O)NCc1ncccc1OC(C)C1CC1 (stereo not shown) [Example 136, N-{[3-(1-cyclopropylethoxy)pyridin-2-yl]methyl}-5-{2-acetamidoimidazo[1,2-b]pyridazin-6-yl}-2-methoxypyridine-3-carboxamide]
[1]; Homo sapiens
  IC50: 0.1 µM
[2]
  IC50: 0.017 µM

## CC(=O)Nc1cn2nc(-c3ccc(C)c(C(=O)NCc4c(F)cccc4-c4cnn(C)c4)c3)ccc2n1 [Example 402, 5-{2-acetamidoimidazo [1,2-b]pyridazin-6-yl}-N-{[2-fluoro-6-(1-methyl-1H-pyrazol-4-yl)phenyl]methyl}-2-methylbenzamide]
[1]; Homo sapiens
  IC50: 0.094 µM
[2]
  IC50: 0.056 µM

## COc1nc(C)c(-c2ccc3nc(NC(C)=O)cn3n2)cc1C(=O)NCc1cc(OC(F)(F)F)ccc1F [Example 311, 5-{2-acetamidoimidazo[1,2-b]pyridazin-6-yl}-N-{[2-fluoro-5-(trifluoromethoxy)phenyl]methyl}-2-methoxy-6-methylpyridine-3-carboxamide, TFA]
[1]
  IC50: 0.004 µM
[2]
  IC50: 0.006 µM

## CC(=O)Nc1cn2nc(-c3cc(C(=O)N[C@H](C)c4cc(C(F)(F)F)ccc4F)c(C)nc3C)ccc2n1 [Example 69, 5-{2-acetamidoimidazo[1,2-b]pyridazin-6-yl}-N-[(1R)-1-[2-fluoro-5-(trifluoromethyl)phenyl]ethyl]-2,6-dimethylpyridine-3-carboxamide]
[1]; Homo sapiens
  IC50: 0.023 µM
[2]
  IC50: 0.015 µM

## 5-{2- acetamidoimidazo [1,2-b]pyridazin- 6-yl}-N-[(1R)- 1-[2-fluoro-5- (trifluoromethyl) phenyl](2,2,2-Â^2Hâ,f) ethyl]-2 methylbenzamide [Example 425]
[1]
  IC50: 0.327 µM
[2]
  IC50: > 5 µM

## [2H]C([2H])([2H])Oc1nc(C)c(-c2ccc3nc(NC(C)=O)cn3n2)cc1C(=O)NCc1cccc(F)c1OC1C[C@@H](C)O[C@@H](C)C1 (stereo partly drawn) [Example 168, N-[(2-{[(2R,6S)-2,6-dimethyloxan-4-yl]oxy}-3-fluorophenyl)methyl]-5-{2-acetamidoimidazo[1,2-b]pyridazin-6-yl}-2-(deutero)methoxy-6-methylpyridine-3-carboxamide]
[1]; Homo sapiens
  IC50: 0.067 µM
[2]
  IC50: 0.021 µM

## CC(=O)Nc1cn2nc(-c3cc(C(=O)NCc4cccc(F)c4OC4C[C@@H](C)O[C@@H](C)C4)c(C)nc3C)ccc2n1 (stereo partly drawn) [Example 63, N-[(2-{[(2R,6S)-2,6-dimethyloxan-4-yl]oxy}-3-fluorophenyl)methyl]-5-{2-acetamidoimidazo[1,2-b]pyridazin-6-yl}-2,6-dimethylpyridine-3-carboxamide]
[1]; Homo sapiens
  IC50: 0.34 µM
[2]
  IC50: 0.149 µM

## CC(=O)Nc1cn2nc(-c3cnc(C)c(C(=O)NCc4cc(F)cc(F)c4OC4CCOC(C)C4)c3)ccc2n1 (stereo not shown) [Example 188, N-({3,5-difluoro-2-[(2-methyloxan-4-yl)oxy]phenyl}methyl)-5-{2-acetamidoimidazo [1,2-b]pyridazin-6-yl}-2-methylpyridine-3-carboxamide]
[1]; Homo sapiens
  IC50: 0.217 µM
[2]
  IC50: 0.022 µM

## CC(=O)Nc1cn2nc(-c3cnc(C)c(C(=O)NCc4cc(F)cc(OC(F)(F)F)c4)c3)ccc2n1 [Example 207, 5-{2-acetamidoimidazo[1,2-b]pyridazin-6-yl}-N-{[3-fluoro-5-(trifluoromethoxy)phenyl]methyl}-2-methylpyridine-3-carboxamide, TFA]
[1]; Homo sapiens
  IC50: 0.092 µM
[2]
  IC50: 0.029 µM
